Test results reported in ChEMBL document CHEMBL1131451, “Structural and functional analyses of benzamidine-based inhibitors in complex with trypsin: implications for the inhibition of factor Xa, tPA, and urokinase” (J Med Chem, 1998).

Assays:
[1] = molecular target: Urokinase-type plasminogen activator (Homo sapiens, UniProt P00749); test: Inhibitory activity against human urokinase plasminogen activator expressed as dissociation constant
Coagulation factor X = Coagulation factor X (Bos taurus, UniProt P00743); test: Inhibitory activity against bovine coagulation factor X expressed as dissociation constant
Chain of Coagulation factor X (P00743 41-180 limits assumed): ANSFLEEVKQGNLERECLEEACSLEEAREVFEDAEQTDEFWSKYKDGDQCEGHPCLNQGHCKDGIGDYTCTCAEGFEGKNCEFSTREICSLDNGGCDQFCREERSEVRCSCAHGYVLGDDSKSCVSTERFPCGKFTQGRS
Chain of Coagulation factor X (P00743 234-492 limits assumed): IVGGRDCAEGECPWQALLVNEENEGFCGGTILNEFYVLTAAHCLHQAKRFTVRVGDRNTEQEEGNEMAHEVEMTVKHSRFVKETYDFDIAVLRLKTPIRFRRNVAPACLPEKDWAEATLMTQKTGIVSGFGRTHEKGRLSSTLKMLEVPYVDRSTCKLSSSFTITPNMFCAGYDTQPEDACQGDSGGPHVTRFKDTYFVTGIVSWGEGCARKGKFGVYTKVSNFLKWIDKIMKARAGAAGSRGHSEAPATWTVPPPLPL

Prothrombin = Prothrombin (Bos taurus, UniProt P00735); test: Inhibitory activity against bovine thrombin expressed as dissociation constant
Serine protease 1 = molecular target: T1, Serine protease 1 (Bos taurus, UniProt P00760); test: Inhibitory activity against bovine trypsin expressed as dissociation constant
T1 sequence (P00760 whole entry): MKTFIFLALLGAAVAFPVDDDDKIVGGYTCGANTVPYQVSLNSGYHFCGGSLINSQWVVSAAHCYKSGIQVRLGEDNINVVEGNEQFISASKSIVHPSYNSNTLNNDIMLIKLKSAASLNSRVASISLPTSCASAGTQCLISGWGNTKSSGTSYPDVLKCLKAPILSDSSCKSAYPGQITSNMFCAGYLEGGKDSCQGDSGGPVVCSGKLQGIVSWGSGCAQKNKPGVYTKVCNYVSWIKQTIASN

[2] = molecular target: Tissue-type plasminogen activator (Homo sapiens, UniProt P00750); test: Inhibitory activity against human tissue-type plasminogen activator expressed as dissociation constant
Chain of Tissue-type plasminogen activator (P00750 whole entry): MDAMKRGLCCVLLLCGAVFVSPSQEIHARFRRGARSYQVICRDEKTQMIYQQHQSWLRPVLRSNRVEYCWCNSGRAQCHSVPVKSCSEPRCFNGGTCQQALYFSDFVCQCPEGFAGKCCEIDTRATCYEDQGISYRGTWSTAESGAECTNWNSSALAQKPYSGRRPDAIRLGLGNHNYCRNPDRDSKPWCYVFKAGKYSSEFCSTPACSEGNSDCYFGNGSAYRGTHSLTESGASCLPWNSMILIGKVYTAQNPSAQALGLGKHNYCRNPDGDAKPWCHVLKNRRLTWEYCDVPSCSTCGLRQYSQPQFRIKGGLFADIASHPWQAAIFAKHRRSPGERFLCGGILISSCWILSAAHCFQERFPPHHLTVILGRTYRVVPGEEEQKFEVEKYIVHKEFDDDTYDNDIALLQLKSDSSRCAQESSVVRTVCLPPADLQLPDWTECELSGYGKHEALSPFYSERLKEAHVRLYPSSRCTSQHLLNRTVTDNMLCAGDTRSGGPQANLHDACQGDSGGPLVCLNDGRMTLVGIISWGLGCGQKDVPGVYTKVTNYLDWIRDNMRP

Structure (SMILES)	Ki [1] [µM]	Ki (Coagulation factor X) [µM]	Ki (Prothrombin) [µM]	Ki (Serine protease 1) [µM]	Ki [2] [µM]
CC1CCN(C(=O)C(Cc2cccc(C(=N)N)c2)NS(=O)(=O)c2ccc3ccccc3c2)CC1 (configuration not stated)	31				
CC1CCN(C(=O)C(Cc2cccc(C(=N)N)c2)NC(=O)OC(C)(C)C)CC1 (configuration not stated)	56	64			
CCOC(=O)N1CCN(C(=O)C(Cc2cccc(C(N)N)c2)NS(=O)(=O)c2c(C(C)C)cc(C(C)C)cc2C(C)C)CC1 (configuration not stated)	0.41	1.7	0.49	0.037	0.57
COC(=O)C(Cc1cccc(C(N)N)c1)NC(=O)CNS(=O)(=O)c1ccc(C)cc1 (configuration not stated)	78		3.9	5.7	23
Cc1ccc(S(=O)(=O)NC(Cc2cccc(C(N)N)c2)C(=O)N2CCCCC2)cc1 (configuration not stated)	55	15	0.34		120
CNC(=O)C(Cc1cccc(C(N)N)c1)NC(=O)CNS(=O)(=O)c1ccc2ccccc2c1 (configuration not stated)	> 1000	3	9.6	9.2	69
CC1CCN(C(=O)C(N)Cc2cccc(C(=N)N)c2)CC1 (configuration not stated)	800	230			
CC(C)OC(=O)C(Cc1cccc(C(N)N)c1)NC(=O)CNS(=O)(=O)c1ccc2ccccc2c1 (configuration not stated)	49	0.24	1.2	3.7	33
NC(N)c1ccc(CC(NC(=O)CNS(=O)(=O)c2ccc3ccccc3c2)C(=O)N2CCCCC2)cc1 (configuration not stated)	> 1000		0.006		70
COC(=O)C1CCN(C(=O)C(Cc2cccc(C(=N)N)c2)NS(=O)(=O)c2ccc3ccccc3c2)CC1 (configuration not stated)	9.3	43	0.017		
N=C(N)c1ccccc1 [BENZAMIDINE]		160	890		
N=C(N)c1cccc(CC(NS(=O)(=O)c2ccc3ccccc3c2)C(=O)N2CCN(c3ccccc3)CC2)c1 (configuration not stated)	41				
NC(N)c1ccc(/C=C2\CCCC/C(=C\c3ccc(C(N)N)cc3)C2=O)cc1	3.4	0.013	0.32	0.09	0.035
COC(=O)C1CCCN(C(=O)C(Cc2cccc(C(=N)N)c2)NS(=O)(=O)c2ccc3ccccc3c2)C1 (configuration not stated)	26	18	0.15		
CC(C)c1cc(C(C)C)c(S(=O)(=O)NC(Cc2cccc(C(N)N)c2)C(=O)N2CCCC(C(=O)NCc3ccccc3)C2)c(C(C)C)c1 (configuration not stated)	1.6	2.5	1.8	0.46	0.98
CC1CCN(C(=O)C(Cc2cccc(C(=N)N)c2)NS(=O)(=O)c2ccc3c(c2)C(=O)c2ccccc2C3=O)CC1 (configuration not stated)	40	2.3			
Cc1cc(C)c(S(=O)(=O)NC(Cc2cccc(C(=N)N)c2)C(=O)N2CCC(C)CC2)c(C)c1 (configuration not stated)	16	95			
N=C(N)c1cccc(CC(NS(=O)(=O)c2ccc3ccccc3c2)C(=O)N2CCNCC2)c1 (configuration not stated)	48				
CC1CCN(C(=O)C(Cc2cccc(C(=N)N)c2)NS(=O)(=O)c2c(C(C)C)cc(C(C)C)cc2C(C)C)CC1 (configuration not stated)	2	2	0.075		
CCOC(=O)C1CCN(C(=O)C(Cc2cccc(C(=N)N)c2)NS(=O)(=O)c2ccc3ccccc3c2)CC1 (configuration not stated)	4.5	18	0.22	0.0084	24
CC(C)c1cc(C(C)C)c(S(=O)(=O)NC(Cc2cccc(C(N)N)c2)C(=O)N2CCN(C(=O)OCc3ccccc3)CC2)c(C(C)C)c1 (configuration not stated)	1.4	2.7	1.1	0.2	0.95
N=C(N)c1cccc(CC(NS(=O)(=O)c2ccc3ccccc3c2)C(=O)N2CCCCC2)c1 (configuration not stated)	38				
CC1CCCN(C(=O)C(Cc2cccc(C(=N)N)c2)NS(=O)(=O)c2ccc3ccccc3c2)C1 (configuration not stated)	35	32	0.13	0.53	
Cc1ccc(S(=O)(=O)NC(Cc2cccc(C(=N)N)c2)C(=O)N2CCC(C)CC2)cc1 (configuration not stated)	25	71			
CC1CCN(C(=O)C(Cc2cccc(C(=N)N)c2)NS(=O)(=O)c2cccc3ccccc23)CC1 (configuration not stated)	34	42			
